Where “and” joins values, the source holds several entries; their conditions need not be identical. Equal entries are not always repeated. ± gives the expanded uncertainty stated by the source.
Details: Liquid; for mass density: Vibrating tube method; for viscosity: 362.81 K, Vibrating wire viscometry

OCCOCCO [diethylene glycol]
Details	mass density
343.15 K, 3060 kPa	1081.2 ± 4.3 kg/m3
343.15 K, 5040 kPa	1082.3 ± 4.3 kg/m3
343.15 K, 6970 kPa	1083.3 ± 4.3 kg/m3
343.15 K, 9950 kPa	1084.8 ± 4.4 kg/m3
343.15 K, 14870 kPa	1087.3 ± 4.4 kg/m3
343.15 K, 19740 kPa	1089.6 ± 4.4 kg/m3
343.15 K, 24710 kPa	1092.1 ± 4.4 kg/m3
343.15 K, 29560 kPa	1094.4 ± 4.4 kg/m3
343.15 K, 34490 kPa	1096.6 ± 4.4 kg/m3
343.15 K, 39350 kPa	1098.8 ± 4.4 kg/m3
343.15 K, 44290 kPa	1101 ± 4.4 kg/m3
343.15 K, 49180 kPa	1103.1 ± 4.4 kg/m3
343.15 K, 54070 kPa	1105.2 ± 4.4 kg/m3
343.15 K, 58980 kPa	1107.3 ± 4.5 kg/m3
343.15 K, 63910 kPa	1109.3 ± 4.5 kg/m3
343.15 K, 68720 kPa	1111.2 ± 4.5 kg/m3
353.15 K, 100 kPa	1072.2 ± 4.3 kg/m3
353.15 K, 560 kPa	1072.5 ± 4.3 kg/m3
353.15 K, 1090 kPa	1072.8 ± 4.3 kg/m3
353.15 K, 1550 kPa	1073 ± 4.3 kg/m3
353.15 K, 2080 kPa	1073.3 ± 4.3 kg/m3
353.15 K, 3040 kPa	1073.8 ± 4.3 kg/m3
353.15 K, 5060 kPa	1074.9 ± 4.3 kg/m3
353.15 K, 7020 kPa	1076 ± 4.3 kg/m3
353.15 K, 9970 kPa	1077.5 ± 4.3 kg/m3
353.15 K, 14830 kPa	1080.1 ± 4.3 kg/m3
353.15 K, 19740 kPa	1082.6 ± 4.3 kg/m3
353.15 K, 24680 kPa	1085.1 ± 4.4 kg/m3
353.15 K, 29560 kPa	1087.5 ± 4.4 kg/m3
353.15 K, 34550 kPa	1089.8 ± 4.4 kg/m3
353.15 K, 39420 kPa	1092.1 ± 4.4 kg/m3
353.15 K, 44280 kPa	1094.3 ± 4.4 kg/m3
353.15 K, 49230 kPa	1096.5 ± 4.4 kg/m3
353.15 K, 54110 kPa	1098.7 ± 4.4 kg/m3
353.15 K, 59020 kPa	1100.8 ± 4.4 kg/m3
353.15 K, 64010 kPa	1102.9 ± 4.4 kg/m3
353.15 K, 68770 kPa	1104.8 ± 4.5 kg/m3
363.08 K, 100 kPa	1064.5 ± 4.3 kg/m3 and 1064.4 ± 4.3 kg/m3
363.08 K, 620 kPa	1064.7 ± 4.3 kg/m3
363.08 K, 1110 kPa	1065 ± 4.3 kg/m3
363.08 K, 1570 kPa	1065.2 ± 4.3 kg/m3
363.08 K, 2100 kPa	1065.5 ± 4.3 kg/m3
363.08 K, 3020 kPa	1066 ± 4.3 kg/m3
363.08 K, 5070 kPa	1067.2 ± 4.3 kg/m3
363.08 K, 7000 kPa	1068.3 ± 4.3 kg/m3
363.08 K, 9970 kPa	1069.9 ± 4.3 kg/m3
363.08 K, 14840 kPa	1072.6 ± 4.3 kg/m3
363.08 K, 19750 kPa	1075.1 ± 4.3 kg/m3
363.08 K, 24660 kPa	1077.7 ± 4.3 kg/m3
363.08 K, 29610 kPa	1080.2 ± 4.3 kg/m3
363.08 K, 34480 kPa	1082.6 ± 4.3 kg/m3
363.08 K, 39400 kPa	1084.9 ± 4.4 kg/m3
363.08 K, 44290 kPa	1087.2 ± 4.4 kg/m3
363.08 K, 49160 kPa	1089.5 ± 4.4 kg/m3
363.08 K, 54110 kPa	1091.7 ± 4.4 kg/m3
363.08 K, 58990 kPa	1093.9 ± 4.4 kg/m3
363.08 K, 63880 kPa	1096 ± 4.4 kg/m3
363.08 K, 68760 kPa	1098 ± 4.4 kg/m3

Details	viscosity
230 kPa	3.458 ± 0.14 mPa·s [middle of 4 runs]
240 kPa	3.444 ± 0.14 mPa·s
1070 kPa	3.462 ± 0.14 mPa·s and 3.469 ± 0.14 mPa·s
2190 kPa	3.473 ± 0.14 mPa·s and 3.514 ± 0.14 mPa·s and 3.458 ± 0.14 mPa·s
5080 kPa	3.546 ± 0.14 mPa·s [middle of 5 runs]
9970 kPa	3.652 ± 0.15 mPa·s [middle of 4 runs]
20040 kPa	3.834 ± 0.16 mPa·s
20050 kPa	3.862 ± 0.16 mPa·s and 3.82 ± 0.15 mPa·s and 3.837 ± 0.16 mPa·s
30200 kPa	4.039 ± 0.16 mPa·s
30210 kPa	4.007 ± 0.16 mPa·s
40240 kPa	4.264 ± 0.17 mPa·s and 4.237 ± 0.17 mPa·s
40250 kPa	4.205 ± 0.17 mPa·s and 4.242 ± 0.17 mPa·s
50100 kPa	4.435 ± 0.18 mPa·s
50110 kPa	4.47 ± 0.18 mPa·s and 4.453 ± 0.18 mPa·s
69940 kPa	4.921 ± 0.2 mPa·s
69950 kPa	4.913 ± 0.2 mPa·s
70000 kPa	4.894 ± 0.2 mPa·s
70020 kPa	4.924 ± 0.2 mPa·s

From the NIST ThermoML archive (doi:10.1016/j.fluid.2018.09.026)
